The results in this text go back to PubChem BioAssay (NCI).

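A five-concentration, 48-hour dose response in 96-well plates underlies each endpoint, interpolated linearly between surrounding concentrations. Abbreviation: GI50, concentration required for 50% inhibition of growth. TGI: total growth inhibition.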 A value given as a limit tells only on which side of the number the result lay.

Test systems include CCRF-CEM leukemia; HCT-15 colon; HL-60(TB) leukemia; M14 melanoma; OVCAR-4 ovarian; OVCAR-5 ovarian; SK-MEL-2 melanoma; SK-MEL-5 melanoma; SW-620 colon; UACC-257 melanoma.
Common to all, as to assay: inhibition of tumour cell growth, NCI panel, 48 h

`O=C(O)C(=O)Cc1ccc2c(c1)OCO2`: the TGI in the assay with CCRF-CEM leukemia is 67.1 µM; in the assay with HCT-15 colon, greater than 100 µM; in the assay on HL-60(TB) leukemia, greater than 100 µM; in the assay on M14 melanoma, greater than 100 µM; in the assay on OVCAR-4 ovarian it was greater than 100 µM; with OVCAR-5 ovarian, greater than 100 µM. Further, the TGI with SK-MEL-2 melanoma, in the assay on SK-MEL-5 melanoma, with SW-620 colon and in the assay on UACC-257 melanoma was greater than 100 µM in each case.

Take `COc1ccc(C(=O)/C=C/c2cc3ccccc3[nH]c2=O)cc1`: the GI50 with CCRF-CEM leukemia was 22.3 µM; in the assay with HCT-15 colon, 20.3 µM; with HL-60(TB) leukemia, 21.9 µM; with M14 melanoma, 19.3 µM; with OVCAR-4 ovarian, 19.5 µM; with OVCAR-5 ovarian, 21.9 µM. The GI50 with SK-MEL-2 melanoma was 23 µM; with SK-MEL-5 melanoma, 25 µM; in the assay on SW-620 colon, 18.4 µM; in the assay with UACC-257 melanoma, 25.5 µM. In addition, the TGI with CCRF-CEM leukemia is greater than 100 µM; in the assay on HCT-15 colon it was greater than 59.6 µM; with HL-60(TB) leukemia, greater than 100 µM; with M14 melanoma, 47.2 µM; with OVCAR-4 ovarian, greater than 100 µM; in the assay with OVCAR-5 ovarian, greater than 56.8 µM. Further, the TGI in the assay on SK-MEL-2 melanoma is greater than 73.8 µM; with SK-MEL-5 melanoma, greater than 56.6 µM; with SW-620 colon, 33.2 µM; in the assay with UACC-257 melanoma it was greater than 56.5 µM.
